Measured values published in publication PMC4456386, “Ligand Recognition of the Major Birch Pollen Allergen Bet v 1 is Isoform Dependent” (PLoS ONE, 2015).
Several values for one entry are separate records, joined by “and”; a condition that tells them apart may be missing. Equal entries are not always repeated. Entries after “also recorded” stand apart in the source; their conditions may differ.

Legend:
Bet v 1a [1] = target: T1, Bet v 1a (Betula pendula, UniProt P15494); experiment: UV/VIS equilibrium titration of flavonoids with Bet v 1a; format: binding, Betula verrucosa; details: for Kd: Dissociation constant Kd, UV/VIS titration, 298 K, pH 7.0, 10% DMSO, error = standard error of fit; for Absorption maxima, Bet v 1a:Flavonoid: complex with Bet v 1a
T1 construct: made in house
T1 sequence (P15494 whole entry): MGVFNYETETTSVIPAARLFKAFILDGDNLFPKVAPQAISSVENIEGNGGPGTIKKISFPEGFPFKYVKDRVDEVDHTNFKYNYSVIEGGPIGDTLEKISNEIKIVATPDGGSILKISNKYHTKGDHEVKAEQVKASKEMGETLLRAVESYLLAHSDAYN
Experimental: (§1) All flavonoids and Bet v 1 isoforms were dissolved in 50 mM sodium phosphate, 50 mM NaCl, 10% (v/v) DMSO, pH 7.0, to a final concentration of 10 to 20 μM in 500 μl. Absorption spectra from 200–800 nm were recorded at 25°C in a 1 cm quartz cuvette (Hellma GmbH) using a 8453 UV-visible spectrophotometer (Agilent).
(§2) To further characterize flavonoid binding to Bet v 1, titration experiments were performed by adding small amounts of concentrated Bet v 1 isoform a, d or m to different flavonoids. Changes of flavonoid absorption occurring at specific wavelengths were plotted against the protein concentration. Prior to curve-fitting, absorbance data were corrected for dilution. If possible, the equilibrium dissociation constant (K d) was determined by non-linear regression analysis of the data with GraFit-5 (Version 5.0, Erithacus Software, UK) using the following Eq (1): ΔA=ΔAmax/2Q[(B+Q+Kd)-((B+Q+Kd)^2-[…])] (1) ΔA max, maximum change in absorbance at specific wavelengths; B, Bet v 1a concentration; Q, total flavonoid concentration.

Bet v 1m [2] = target: T2, Bet v 1m (Betula pendula, UniProt P43186); experiment: UV/VIS equilibrium titration of flavonoids with Bet v 1m; format: binding, Betula verrucosa; details: for Absorption maxima, Bet v 1m:Flavonoid: complex with Bet v 1m
T2 construct: made in house
T2 sequence (P43186 whole entry): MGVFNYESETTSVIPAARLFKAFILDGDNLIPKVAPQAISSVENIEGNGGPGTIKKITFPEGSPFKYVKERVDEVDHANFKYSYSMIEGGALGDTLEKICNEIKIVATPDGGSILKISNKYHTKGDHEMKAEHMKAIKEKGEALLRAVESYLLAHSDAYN
Experimental: as §1, §2

Bet v 1d [3] = target: T3, Bet v 1d (Betula pendula, UniProt P43177); experiment: UV/VIS equilibrium titration of flavonoids with Bet v 1d; format: binding, Betula verrucosa; details: for Absorption maxima, Bet v 1d:Flavonoid: complex with Bet v 1d
T3 construct: made in house
T3 sequence (P43177 whole entry): as the sequence (P15494 whole entry) above, with T8I, F31V, S58N, I92V, S113C, I114V, D126N counted along it
Experimental: as §1, §2

Bet v 1a [4] = target: T1, Bet v 1a; experiment: 1H-15N HSQC NMR titration (chemical shift perturbation) of 15N-Bet v 1a; format: binding, Betula verrucosa; details: for Kd per residue / Kd / Dissociation constant Kd (averaged Kd app): Bet v 1a; for binding to Bet v 1a (in words): 1H-15N HSQC titration
Experimental: (§3) All NMR experiments were performed at 298 K in 50 mM sodium phosphate buffer, 50 mM NaCl, pH 7.0, 10% deuterium oxide (^2H2O) with ^15N-uniformly labelled Bet v 1 isoforms using Bruker Avance 700 MHz and Avance 800 MHz spectrometers with cryogenically cooled triple-resonance probes equipped with pulsed field-gradient capabilities. NMR data were processed using NMRPipe and visualized with NMRViewJ [89]. Three-dimensional ^15N-edited NOESY (nuclear Overhauser enhancement spectroscopy, mixing times 120 ms) experiments to assign chemical shifts were obtained with 500 μM ^15N-labeled samples of Bet v 1 isoform d or m and yielded 91% of assigned residues for Bet v 1d and 89% for Bet v 1m. The sequence-specific assignments of the amide resonances of Bet v 1a are reported elsewhere.
(§4) Interaction of Q3OS with the Bet v 1 isoforms was measured by incubating 700 μM Q3OS with 50 μM of each ^15N-labeled Bet v 1 isoform in 50 mM sodium phosphate, 50 mM NaCl buffer, pH 7.0.
(§5) For titration experiments all other flavonoids were dissolved in deuterated DMSO, while glucose and galactose were dissolved in 50 mM sodium phosphate buffer, 50 mM NaCl, pH 7.0, 10% deuterium oxide and titrated stepwise to a final excess of up to 17-fold to protein samples (ca. 100 μM). […] CSPs for ligand binding were calculated based on Eq (2): […] (2) ΔδHN and ΔδN, chemical shift differences of amide proton and nitrogen resonances, respectively, in ppm.
(§6) K d values for flavonoid binding were determined with NMRViewJ [89]. All analysable amino acid residues that were unaffected by DMSO addition and showing CSPs > 0.08 ppm were fitted to a quadratic binding curve with default settings, and an average K d app was calculated (Table 1 and S1–S3 Tables). The CSPs of all residues showing CSPs > 0.04 ppm were mapped either on models of Bet v 1d and Bet v 1m or on the Bet v 1a structure (pdb code 1BV1, [29]).

Bet v 1m [5] = target: T2, Bet v 1m; experiment: 1H-15N HSQC NMR titration (chemical shift perturbation) of 15N-Bet v 1m; format: binding, Betula verrucosa
Experimental: as §3, §4, §5, §6

[6] = UV/VIS absorption spectra of unbound flavonoids; format: physicochemical; details: pH 7.0
Experimental: as §1

Bet v 1d [7] = target: T3, Bet v 1d; experiment: 1H-15N HSQC NMR titration (chemical shift perturbation) of 15N-Bet v 1d; format: binding, Betula verrucosa; details: for binding to Bet v 1d (in words): 1H-15N HSQC titration, up to 15-fold excess
Experimental: as §3, §4, §5, §6

Bet v 1m [8] = target: T2, Bet v 1m; experiment: 1H-15N HSQC NMR titration (chemical shift perturbation) of 15N-Bet v 1m; format: binding, Betula verrucosa; details: 1H-15N HSQC titration, up to 15-fold excess
[9] = system: serum IgE binding to surface-coated Bet v 1a, Bet v 1d and Bet v 1m; experiment: Indirect ELISA for IgE binding to Bet v 1 isoforms; design: species or system human; details: 5-fold molar excess of ligand; isoforms a, d, m
Description: Fifteen sera of birch pollen-allergic subjects were collected, tested, and pooled according to the guideline of the European Medicines Agency (EMEA/CHMP/BWP/304831/2007). The serum pool is routinely used for batch-release testing of birch pollen-derived allergenic products at the Paul-Ehrlich-Institut. The same serum pool was used for both, ELISA and mediator release assays.
For IgE-ELISA experiments, Maxisorp plates (Nunc via Fisher Scientific) were coated overnight at room temperature with 50 ng/100 μl recombinant Bet v 1 isoforms a, d, or m with a 5-fold molar excess of quercetin-3-O-sophorose, rutin, quercetin, quercetin-3-O-glucoside, quercetin-3-O-galactoside, or sophorose, respectively, in phosphate-buffered saline (PBS). After blocking with PBS containing 2% bovine serum albumin (BSA) these plates and an uncoated control were incubated with a dilution series of a serum pool of birch-pollen allergic subjects for 1 h at room temperature with PBS containing 0.05% Tween 20 and 0.1% BSA. Allergen-specific human IgE was detected with a horseradish peroxidase-conjugated mouse anti-human IgE antibody (Clone B3102E8, Southern biotech via Biozol, Eching, Germany) diluted 1:1000. 3,3′,5,5′-tetramethylbenzidine (Roth, Karlsruhe) was used as substrate for horseradish peroxidase, and the absorbance at 450 nm was measured after stopping the reaction with 25% H2SO4.

[10] = one value per residue with Δδnorm > 0.08 ppm (residue named left of the cell), Int. Ex. = intermediate exchange
[11] = Dissociation constant Kd (averaged Kd app), NMR, average of all analysable residues with CSPs > 0.08 ppm, ± standard deviation
[12] = Kd per residue, one value per residue with Δδnorm > 0.08 ppm (residue named left of the cell), Int. Ex. = intermediate exchange
[13] = NMR, average of all analysable residues with CSPs > 0.08 ppm, ± standard deviation
[14] = NMR, Bet v 1d, average of all analysable residues with CSPs > 0.08 ppm, ± standard deviation
[15] = NMR, average of all analysable residues with CSPs > 0.08 ppm, ± standard deviation, read-out: Dissociation constant Kd (averaged Kd app)

Row | Structure (SMILES) | Kd (Bet v 1a [1]; Bet v 1a) [µM] | Absorption maxima, Bet v 1a:Flavonoid (Bet v 1a [1]) [nm] | Kd (Bet v 1d [3]) [µM] | Absorption maxima, Bet v 1d:Flavonoid (Bet v 1d [3]) [nm] | Kd per residue (Bet v 1a [4]; [10]) | Kd (Bet v 1a [4]; [11]) | Kd (Bet v 1a [4]; [12]) | Kd (Bet v 1m [5]; [11]) [µM] | Kd per residue (Bet v 1m [5]; [10]) | Absorption maxima, Flavonoid [6] [nm] | binding to Bet v 1a (in words) (Bet v 1a [4]) | binding to Bet v 1d (in words) (Bet v 1d [7]) | Dissociation constant Kd (averaged Kd app) (Bet v 1d [7]; [14]) | binding to Bet v 1m (in words) (Bet v 1m [8]) | influence of ligand on IgE binding of Bet v 1 isoforms [9] | other results
1 | O=c1c(O)c(-c2ccc(O)c(O)c2)oc2cc(O)ccc12 [Fisetin, fisetin] | 14.3 ± 1.1 | 372 | 13.9 ± 2.1 | 371 | Int. Ex. | 37.2 ± 6.5 µM | 18.2 µM and 39.4 µM and 72.5 µM and 16.1 µM and 53.5 µM and 48 µM and 36.8 µM and 18.6 µM and 28.6 µM and 17.4 µM and 16.8 µM | 85.1 ± 21.7 | Int. Ex. | 368 | – | – | – | – | – | Kd (Bet v 1m [2]): 68.6 ± 12.4 µM; Absorption maxima, Bet v 1m:Flavonoid (Bet v 1m [2]): 370 nm; Kd (Bet v 1m [5]; [12]): 150 µM and 28.9 µM and 109 µM and 111 µM and 81.3 µM and 20.4 µM
2 | O=c1cc(-c2ccccc2)oc2ccccc12 [Flavone, flavone] | – | – | – | – | – | 67.1 ± 12.1 µM | – | 213 ± 36.6 | – | 302 | – | – | – | – | – | Kd (Bet v 1d [7]; Dissociation constant Kd (averaged Kd app), NMR, Bet v 1d, average of all analysable residues with CSPs > 0.08 ppm, ± standard deviation): 69.9 ± 14.8 µM
3 | O=C[C@H](O)[C@@H](O)[C@@H](O)[C@H](O)CO [Galactose, galactose] | – | – | – | – | – | – | – | – | – | – | no detectable affinity | no detectable affinity | No binding | no detectable affinity | – | Dissociation constant Kd (averaged Kd app) (Bet v 1a [4]; [13]): No binding; Dissociation constant Kd (averaged Kd app) (Bet v 1m [5]; [13]): No binding
4 | OC[C@H]1OC(O)[C@H](O)[C@@H](O)[C@@H]1O (stereo partly drawn) [Glucose, glucose] | – | – | – | – | – | – | – | – | – | – | no detectable affinity | no detectable affinity | No binding | no detectable affinity | – | Dissociation constant Kd (averaged Kd app) (Bet v 1a [4]; [13]): No binding; Dissociation constant Kd (averaged Kd app) (Bet v 1m [5]; [13]): No binding
5 | O=c1c(O)c(-c2cc(O)c(O)c(O)c2)oc2cc(O)cc(O)c12 [Myricetin, myricetin] | 4.2 ± 0.7 | 387 | 1.2 ± 0.2 | 382 | Int. Ex. | 14.6 ± 6.5 µM | 5 µM and 11.6 µM and 26.9 µM | 99.3 ± 19.4 | Int. Ex. | 378 | – | – | – | – | – | fold higher affinity than flavone (Bet v 1a [1]; Bet v 1a): 15 fold; fold higher affinity than flavone (Bet v 1d [3]; Bet v 1d): 60 fold; Kd (Bet v 1m [5]; [12]): 75.3 µM and 161 µM and 24.4 µM and 88.5 µM and 126 µM and 120 µM
6 | O=C1C[C@@H](c2ccc(O)cc2)Oc2cc(O)cc(O)c21 [Naringenin, naringenin] | 60.6 ± 3.2 | 325 | 37.7 ± 6.4 | 325 | Int. Ex. | ~30 µM and 30 µM | – | 22.1 ± 5.5 | Int. Ex. | 325 | – | – | – | – | – | Kd (Bet v 1m [2]): 28.1 ± 0.8 µM; Absorption maxima, Bet v 1m:Flavonoid (Bet v 1m [2]): 322 nm; Kd (Bet v 1m [5]; [12]): 8.2 µM and 13.6 µM and 19 µM and 39.6 µM and 27.1 µM
7 | O=c1c(O[C@@H]2O[C@H](CO)[C@H](O)[C@H](O)[C@H]2O)c(-c2ccc(O)c(O)c2)oc2cc(O)cc(O)c12 [Q3OGal, quercetin-3-O-galactoside] | – | – | – | – | Int. Ex. | – | – | – | Int. Ex. | 358 | high affinity; also recorded: strong | Weak affinity; also recorded: did not produce significant CSPs | No binding | High affinity | did not modify IgE-binding | Kd (Bet v 1a [4]; [15]): < 5 µM; Kd (Bet v 1m [5]; [15]): < 5 µM
8 | O=c1c(O[C@@H]2O[C@H](CO)[C@@H](O)[C@H](O)[C@H]2O)c(-c2ccc(O)c(O)c2)oc2cc(O)cc(O)c12 [Q3OGlc, quercetin-3-O-glucoside] | – | – | – | – | Int. Ex. | 288 µM | 357 µM and 259 µM and 285 µM and 252 µM | < 5 | Int. Ex. | 364 | weak | Weak affinity; also recorded: did not produce significant CSPs | No binding | High affinity; also recorded: strongly binds | did not modify IgE-binding | –
9 | O=c1c(O)c(-c2ccc(O)c(O)c2)oc2cc(O)cc(O)c12 [Quercetin, quercetin] | 9.2 ± 0.6 | 382 | 10.2 ± 1 | 382 | Int. Ex. | 31.4 ± 10.3 µM | 69.1 µM and 36.8 µM and 11.1 µM and 21.6 µM and 18.6 µM | 65.8 ± 8.2 | Int. Ex | 377 | – | – | – | – | did not modify IgE-binding | Kd (Bet v 1m [2]): 26.5 ± 1.5 µM; Absorption maxima, Bet v 1m:Flavonoid (Bet v 1m [2]): 381 nm
10 | C[C@@H]1O[C@@H](OC[C@H]2O[C@@H](Oc3c(-c4ccc(O)c(O)c4)oc4cc(O)cc(O)c4c3=O)[C@H](O)[C@@H](O)[C@@H]2O)[C@H](O)[C@H](O)[C@H]1O [rutin] | – | – | – | – | – | – | – | – | – | – | – | – | – | – | did not modify IgE-binding | –
11 | OC[C@H]1O[C@@H](O[C@H]2C(O)O[C@H](CO)[C@@H](O)[C@@H]2O)[C@H](O)[C@@H](O)[C@@H]1O (stereo partly drawn) [sophorose] | – | – | – | – | – | – | – | – | – | – | – | – | – | – | did not modify IgE-binding | –
